Key:
[1] = test system: summer wheat (TRZAS; cv. Triso); assay: Absolute action: reduction of damage by mesosulfuron-methyl on summer wheat, greenhouse post-emergence; assay type: in vivo; conditions: for Absolute reduction in herbicide damage (damage without safener minus damage with safener): mesosulfuron-methyl 20 g/ha; for Herbicide damage with compound of the formula (I): then mesosulfuron-methyl 20 g/ha, visual 0-100% scale, 14-21 days after application
Protocol: (§1) 2.1 Absolute Action of Selected Compounds of the Invention Using the Example of Reduction of Damage by Mesosulfuron-Methyl on Summer Wheat (TRZAS) The seeds of the crop plants to be treated are laid out in sandy loam in wood fiber or plastic pots (diameter ˜4 cm), covered with soil and grow in a greenhouse under good conditions for germination and growth. The trial plants were treated at the early leaf stage (BBCH10—BBCH12). In the course of this, the inventive compounds of the general formula (I) formulated in the form of wettable powders (WP) were sprayed onto the above-ground parts of the plants as an aqueous suspension with a water application rate corresponding to 800 l/ha with addition of wetting agent (e.g. 0.2% agrotin) in the specified dose. This was followed by the application of the herbicide. For this purpose, mesosulfuron-methyl, formulated in the form of water-dispersible granules (WG), was sprayed onto the above-ground parts of the plants in the form of an aqueous dispersion with a water application rate corresponding to 800 l/ha with addition of wetting agent (e.g. 0.2% agrotin) in a dose of 20 g/ha. The dose of the herbicide was chosen here such that it causes visually apparent damage (min. 30%, max. 75%) compared to untreated crop plants at the evaluation time on a control group of crop plants without safener treatment that were included in the same trial. After application, the plants were cultivated under good growth conditions in a greenhouse. The damage was visually assessed 14-21 days after application. The damage effect was assessed visually on a scale of 0-100% by comparison with untreated control plants, and averaged over 2-3 repeats per treatment. Examples: • 0%=no noticeable effect compared to the untreated plant • 20%=the treated plant population has 20% damage compared to the untreated control population (e.g. growth height, leaf damage, etc.) • 100%=treated plants completely damaged/killed.

[2] = test system: summer barley (HORVS; cv. Montoya); assay: Absolute action: reduction of damage by mesosulfuron-methyl on summer barley, greenhouse post-emergence; assay type: in vivo; conditions: for Absolute reduction in damage (difference): mesosulfuron-methyl 20 g/ha, damage without minus with safener; for Herbicide damage with compound of the formula (I) (%): then mesosulfuron-methyl 20 g/ha, visual 0-100% scale, 14-21 days after application
Protocol: as §1, with “2.2 Absolute Action” for “2.1 Absolute Action”, “on Summer Barley (HORVS) The seeds” for “on Summer Wheat (TRZAS) The seeds”, “treated are aid out in” for “treated are laid out in”, “soil and grown in a” for “soil and grow in a”, “leaf stage (BBCE10-BBCH12). In the” for “leaf stage (BBCH10—BBCH12). In the”, “control population (e.g.: growth height,” for “control population (e.g. growth height,”

SMILES | Absolute reduction in herbicide damage (damage without safener minus damage with safener) ([1]; safener 125 g a.i./ha) | Herbicide damage with compound of the formula (I) ([1]; safener 125 g a.i./ha) | Absolute reduction in damage (difference) ([2]; safener 125 g a.i./ha) | Herbicide damage with compound of the formula (I) (%) ([2]; safener 125 g a.i./ha) | Absolute reduction in damage (difference) ([2]; safener 500 g a.i./ha) | Herbicide damage with compound of the formula (I) (%) ([2]; safener 500 g a.i./ha) | Absolute reduction in damage (difference) ([2]; safener 1000 g a.i./ha) | Herbicide damage with compound of the formula (I) (%) ([2]; safener 1000 g a.i./ha) | also measured
CCOC(=O)COc1nc(-c2ccccc2F)n(-c2ccc(Cl)cc2F)n1 [I.5-49] | 54% | 13% | 50% | 23% | 56% | 17% | – | – | –
COc1ccccc1-c1nc(OCC(=O)O)nn1-c1ccccc1F [I.24-2] | – | – | – | – | – | – | – | – | Absolute reduction in herbicide damage (damage without safener minus damage with safener) ([1]; safener 500 g a.i./ha): 20%; Herbicide damage with compound of the formula (I) ([1]; safener 500 g a.i./ha): 30%
COC(=O)COc1nc(-c2ccc(Cl)cc2F)n(-c2ccc(Cl)cc2F)n1 [I.46-49] | 43% | 10% | 40% | 20% | 43% | 17% | – | – | –
COC(=O)COc1nc(-c2ccc(Cl)cc2F)n(-c2ccc(F)cc2F)n1 [I.46-38] | 33% | 30% | 40% | 23% | 43% | 20% | – | – | –
CCOC(=O)COc1nc(-c2ccc(F)cc2F)n(-c2ccc(Cl)cc2)n1 [I.41-7] | – | – | – | – | – | – | 40% | 20% | Absolute reduction in herbicide damage (damage without safener minus damage with safener) ([1]; safener 250 g/ha): 23%; Herbicide damage with compound of the formula (I) ([1]; safener 250 g/ha): 20%
COC(=O)COc1nc(-c2ccccc2F)n(-c2ccc(F)cc2F)n1 [I.4-38] | 27% | 30% | – | – | 50% | 7% | – | – | –
O=C(O)COc1nc(-c2ccc(Cl)cc2)n(-c2ccc(F)cc2F)n1 [I.21-38] | – | – | – | – | – | – | 40% | 20% | Absolute reduction in herbicide damage (damage without safener minus damage with safener) ([1]; safener 1000 g/ha): 23%; Herbicide damage with compound of the formula (I) ([1]; safener 1000 g/ha): 20%; Absolute reduction in damage (difference) ([2]; safener 250 g a.i./ha): 30%; Herbicide damage with compound of the formula (I) (%) ([2]; safener 250 g a.i./ha): 30%
CCOC(=O)COc1nc(-c2cc(F)cc(F)c2)n(-c2ccc(F)cc2F)n1 [I.53-38] | – | – | – | – | – | – | 40% | 20% | Absolute reduction in herbicide damage (damage without safener minus damage with safener) ([1]; safener 1000 g/ha): 20%; Herbicide damage with compound of the formula (I) ([1]; safener 1000 g/ha): 23%; Absolute reduction in damage (difference) ([2]; safener 250 g a.i./ha): 30%; Herbicide damage with compound of the formula (I) (%) ([2]; safener 250 g a.i./ha): 30%
CCOC(=O)COc1nc(-c2ccc(Cl)cc2Cl)n(-c2ccc(Cl)cc2Cl)n1 [I.44-32] | 53% | 10% | 33% | 27% | 47% | 13% | – | – | Absolute reduction in herbicide damage (damage without safener minus damage with safener) ([1]; safener 500 g a.i./ha): 56%; Herbicide damage with compound of the formula (I) ([1]; safener 500 g a.i./ha): 7%
O=C(O)COc1nc(-c2ccccc2F)n(-c2ccc(Cl)cc2F)n1 [I.6-49] | – | – | – | – | – | – | 30% | 30% | Absolute reduction in herbicide damage (damage without safener minus damage with safener) ([1]; safener 250 g/ha): 30%; Herbicide damage with compound of the formula (I) ([1]; safener 250 g/ha): 27%; Absolute reduction in damage (difference) ([2]; safener 250 g a.i./ha): 20%; Herbicide damage with compound of the formula (I) (%) ([2]; safener 250 g a.i./ha): 40%
CCOC(=O)COc1nc(-c2ccccc2)n(-c2ccc(F)cc2F)n1 [I.2-38] | – | – | – | – | – | – | – | – | Absolute reduction in herbicide damage (damage without safener minus damage with safener) ([1]; safener 1000 g/ha): 20%; Herbicide damage with compound of the formula (I) ([1]; safener 1000 g/ha): 30%

— patent publication US12583826B2, “[(1,5-diphenyl-1H-1,2,4-triazol-3-yl)oxy]acetic acid derivatives and salts thereof, crop protection compositions comprising them, methods for producing them and use thereof as safeners” (Bayer Aktiengesellschaft, priority 2019, dated 2026)
